Assay results taken from US7186743B2, “Substituted pyrazolyl compounds for the treatment of inflammation” (Pharmacia Corporation, priority 2001, dated 2007).
Structures can show the parent of a compound that is named as a salt. Where two headings read alike, the source gives them in different places. Each block holds one compound with its values, some of them ahead of it.

Key:
IKK2 = biological target: T1, IKK2 (Homo sapiens, UniProt O14920); assay: IKKβ Resin Enzyme Assay (IKK2 resin); assay type: biochemical
T1 construct: made in house; host or cells: insect cells (baculovirus, pFastBac; SF9)
T1 sequence (O14920 1-756): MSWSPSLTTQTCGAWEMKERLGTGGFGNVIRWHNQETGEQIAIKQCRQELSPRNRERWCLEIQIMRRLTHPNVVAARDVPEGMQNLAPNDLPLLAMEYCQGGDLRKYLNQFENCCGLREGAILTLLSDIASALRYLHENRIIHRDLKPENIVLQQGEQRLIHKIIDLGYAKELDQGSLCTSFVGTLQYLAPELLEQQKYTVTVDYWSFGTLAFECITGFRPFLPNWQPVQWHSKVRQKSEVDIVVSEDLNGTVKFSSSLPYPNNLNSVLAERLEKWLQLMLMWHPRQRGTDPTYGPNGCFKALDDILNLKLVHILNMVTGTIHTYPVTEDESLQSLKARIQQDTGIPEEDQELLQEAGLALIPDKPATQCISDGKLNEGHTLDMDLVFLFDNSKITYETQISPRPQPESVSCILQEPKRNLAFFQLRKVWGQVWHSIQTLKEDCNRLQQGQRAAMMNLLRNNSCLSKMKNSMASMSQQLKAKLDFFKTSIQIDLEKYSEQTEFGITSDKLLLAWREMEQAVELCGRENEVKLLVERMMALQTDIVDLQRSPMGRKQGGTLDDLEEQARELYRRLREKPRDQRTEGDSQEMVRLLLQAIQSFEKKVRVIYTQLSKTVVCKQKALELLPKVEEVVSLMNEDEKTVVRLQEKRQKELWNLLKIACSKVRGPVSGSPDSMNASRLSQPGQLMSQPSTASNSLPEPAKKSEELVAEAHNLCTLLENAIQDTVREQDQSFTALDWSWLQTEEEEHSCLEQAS
Summary of the method: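 Radiometric test: [γ-33P]ATP incorporation into a biotinylated IκBα peptide, 30 min at 25° C, pH 7.6 Hepes with MgCl2/MnCl2 and 1 μM cold ATP. Reaction is quenched with Dowex resin and the supernatant is counted. Kinase is FLAG-purified homodimeric recombinant human IKK2 from insect cells.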

[1] = Table 14, read-out: IKK2 Resin IC50
[2] = Table 11, read-out: IKK2 Resin IC50
[3] = Table 4, read-out: IKK2 Resin IC50

- melting point: 305 to 307 °C
Compound: CN1CCN(c2cc(C(=O)Nc3ccc4c(c3)-c3c(c(C(N)=O)nn3-c3ccc5c(c3)OCO5)CC4)c(Cl)cn2)CC1 [Example 214, 1-(1,3-benzodioxol-5-yl)-8-{[5-chloro-2-(4-methylpiperazin-1-yl)isonicotinoyl]amino}-4,5-dihydro-1H-benzo[g]indazole-3-carboxamide]

Compound: CN1CCN(c2ccc(Cl)c(C(=O)Nc3ccc4c(c3)-c3c(c(C(N)=O)nn3-c3ccc5c(c3)OCO5)CC4)n2)CC1 (as salt: salt) [Example 217, 1-(1,3-benzodioxol-5-yl)-8-({[3-chloro-6-(4-methylpiperazin-1-yl)pyridin-2-yl]carbonyl}amino)-4,5-dihydro-1H-benzo[g]indazole-3-carboxamide]
- melting point: 264 to 266 °C (dec.)

- melting point: 181 to 182 °C
Compound: COc1ccc(CNc2ncccc2C(=O)Nc2ccc3c(c2)-c2c(c(C(N)=O)nn2-c2ccc4c(c2)OCO4)CC3)cc1 [Example 209, 1-(1,3-benzodioxol-5-yl)-8-[({2-[(4-methoxybenzyl)amino]pyridin-3-yl}carbonyl)amino]-4,5-dihydro-1H-benzo[g]indazole-3-carboxamide]

- melting point: 265 to 267 °C
Compound: NC(=O)c1nn(-c2ccc3c(c2)OCO3)c2c1CCc1ccc(NC(=O)c3cccnc3N)cc1-2 [Example 210, 8-{[(2-aminopyridin-3-yl)carbonyl]amino}-1-(1,3-benzodioxol-5-yl)-4,5-dihydro-1H-benzo[g]indazole-3-carboxamide]

- melting point: 292 to 293 °C
Compound: NC(=O)c1nn(-c2ccc3c(c2)OCO3)c2c1CCc1ccc(NC(=O)c3cc(Cl)ncc3Cl)cc1-2 [Example 211, 1-(1,3-benzodioxol-5-yl)-8-[(2,5-dichloroisonicotinoyl)amino]-4,5-dihydro-1H-benzo[g]indazole-3-carboxamide]

Compound: CN1CCN(c2ccc(Cl)c(C(=O)Nc3ccc4c(c3)-c3c(c(C(N)=O)nn3-c3ccc(F)cc3)CC4)n2)CC1 (as salt: salt) [Example 256, 8-({[3-chloro-6-(4-methylpiperazin-1-yl)pyridin-2-yl]carbonyl}amino)-1-(4-fluorophenyl)-4,5-dihydro-1H-benzo[g]indazole-3-carboxamide]
- melting point: 218 to 220 °C

Compound: NC(=O)c1nn(-c2cccc(F)c2)c2c1CCc1ccc(NC(=O)c3ccccc3Cl)cc1-2 [Example 339, 8-[(2-chlorobenzoyl)amino]-1-(3-fluorophenyl)-4,5-dihydro-1H-benzo[g]indazole-3-carboxamide]
- IC50 (IKK2; [1]): ≤ 1000 nM

- melting point: 263 to 265 °C
Compound: NC(=O)c1nn(-c2ccc3c(c2)OCO3)c2c1CCc1ccc(NC(=O)c3nc(Cl)ccc3Cl)cc1-2 [Example 216, 1-(1,3-benzodioxol-5-yl)-8-{[(3,6-dichloropyridin-2-yl)carbonyl]amino}-4,5-dihydro-1H-benzo[g]indazole-3-carboxamide]

Compound: CC1(C)Cc2c(C(N)=O)nn(-c3ccc4c(c3)OCO4)c2-c2cc(NC(=O)c3cccnc3Cl)ccc21 [Example 434, 1-(1,3-benzodioxol-5-yl)-8-{[(2-chloropyridin-3-yl)carbonyl]amino}-5,5-dimethyl-4,5-dihydro-1H-benzo[g]indazole-3-carboxamide]
- IC50 (IKK2; Table 22, read-out: IKK2 Resin IC50): ≤ 1000 nM

Compound: CC(=O)Nc1ccc(-n2nc(C(N)=O)c3c2-c2cc(NC(=O)c4ccccc4Cl)ccc2CC3)cc1 [Example 371, 1-[4-(acetylamino)phenyl]-8-[(2-chlorobenzoyl)amino]-4,5-dihydro-1H-benzo[g]indazole-3-carboxamide]
- IC50 (IKK2; Table 15, read-out: IKK2 Resin IC50): ≤ 1000 nM

Compound: NC(=O)c1nn(-c2ccc(/C=C/n3ccnc3)cc2)c2c1CCc1ccc(NC(=O)c3ccccc3Cl)cc1-2 [Example 293, 8-[(2-chlorobenzoyl)amino]-1-{4-[(E)-2-(1H-imidazol-1-yl)ethenyl]phenyl}-4,5-dihydro-1H-benzo[g]indazole-3-carboxamide]
- IC50 (IKK2; [2]): ≤ 1000 nM

Compound: COc1cccc(CC(=O)Nc2ccc3c(c2)-c2c(c(C(N)=O)nn2-c2ccc(S(C)(=O)=O)cc2)CC3)c1 [Example 157, 8-{[(3-methoxyphenyl)acetyl]amino}-1-[4-(methylsulfonyl)phenyl]-4,5-dihydro-1H-benzo[g]indazole-3-carboxamide]
- IC50 (IKK2; Table 3, read-out: IKK Resin IC50): ≤ 1000 nM

Compound: NC(=O)c1nn(-c2ccc3c(c2)OCO3)c2c1CCc1ccc(NC(=O)c3ccc([N+](=O)[O-])cc3Cl)cc1-2 [Example 184, 1-(1,3-benzodiaxol-5-yl)-8-[(2-chloro-4-nitrobenzoyl)amino]-4,5-dihydro-1H-benzo[g]indazole-3-carboxamide]
- IC50 (IKK2; [3]): ≤ 1000 nM

Compound: NC(=O)c1nn(-c2ccc(F)cc2)c2c1CCc1ccc(NC(=O)CNC3CCC3)cc1-2 [Example 452, 8-[(N-cyclobutylglycyl)amino]-1-(4-fluorophenyl)-4,5-dihydro-1H-benzo[g]indazole-3-carboxamide]
- IC50 (IKK2; Table 23, read-out: IKK2 Resin IC50): ≤ 1000 nM

Compound: NC(=O)c1nn(-c2ccc3c(c2)OCO3)c2c1CCc1ccc(NC(=O)c3ccc(Cl)cc3Cl)cc1-2 [Example 195, 1-(1,3-benzodioxol-5-yl)-8-[(2,4-dichlorobenzoyl)amino]-4,5-dihydro-1H-benzo[g]indazole-3-carboxamide]
- IC50 (IKK2; [3]): ≤ 1000 nM

Compound: NC(=O)c1nn(-c2ccncc2)c2c1CCc1ccc(NC(=O)c3ccccc3Cl)cc1-2 [Example 338, 8-[(2-chlorobenzoyl)amino]-1-pyridin-4-yl-4,5-dihydro-1H-benzo[g]mdazole-3-carboxamide]
- IC50 (IKK2; [1]): ≤ 1000 nM

Compound: NC(=O)/C=C/c1ccc(-n2nc(C(N)=O)c3c2-c2cc(NC(=O)c4ccccc4Cl)ccc2CC3)cc1 [Example 292, 1-{4-[(1E)-3-amino-3-oxoprop-1-enyl]phenyl}-8-[(2-chlorobenzoyl)amino]-4,5-dihydro-1H-benzo[g]indazole-3-carboxamide]
- IC50 (IKK2; [2]): ≤ 1000 nM

Compound: COc1ccc(C(=O)Nc2ccc3c(c2)-c2c(c(C(N)=O)nn2-c2ccc4c(c2)OCO4)CC3)c(Cl)c1OC [Example 175, 1-(1,3-benzodioxol-5-yl)-8-[(2-chloro-3,4-dimethoxybenzoyl)amino]-4,5-dihydro-1H-benzo[g]indazole-3-carboxamide]
- IC50 (IKK2; [3]): ≤ 1000 nM

Compound: NC(=O)c1nn(-c2ccc(/C=C/CCO)cc2)c2c1CCc1ccc(NC(=O)c3ccccc3Cl)cc1-2 [Example 298, 8-[(2-chlorobenzoyl)amino]-1-{4-[(1E)-4-hydroxybut-1-enyl]phenyl}-4,5-dihydro-1H-benzo[g]indazole-3-carboxamide]
- IC50 (IKK2; [2]): ≤ 1000 nM

Compound: Cc1c(O)cccc1C(=O)Nc1ccc2c(c1)-c1c(c(C(N)=O)nn1-c1ccc3c(c1)OCO3)CC2 [Example 198, 1-(1,3-benzodioxol-5-yl)-8-[(3-hydroxy-2-methylbenzoyl)amino]-4,5-dihydro-1H-benzo[g]indazole-3-carboxamide]
- IC50 (IKK2; [3]): ≤ 1000 nM

Compound: CN(C)CCSc1ccc(Cl)c(C(=O)Nc2ccc3c(c2)-c2c(c(C(N)=O)nn2-c2ccc(F)cc2)CC3)n1 [Example 257, 8-{[(3-chloro-6-{[2-(dimethylamino)ethyl]thio}pyridin-2-yl)carbonyl]amino}-1-(4-fluorophenyl)-4,5-dihydro-1H-benzo[g]indazole-3-carboxamide]
- IC50 (IKK2; Table 7, read-out: IKK2 Resin IC50): ≤ 1000 nM

Compound: CS(=O)(=O)c1ccc(-n2nc(C(N)=O)c3c2-c2cc(NC(=O)c4cccnc4Cl)ccc2CC3)cc1 [Example 98, 8-{[(2-chloropyridin-3-yl)carbonyl]amino}-1-[4-(methylsulfonyl)phenyl]-4,5-dihydro-1H-benzo[g]indazole-3-carboxamide]
- IC50 (IKK2; Table 2, read-out: IKK Resin IC50): ≤ 1000 nM
